For 38 compounds, GI50 and TGI results are on record in PubChem BioAssay (NCI).

Some test systems named below: BT-549 breast; T-47D breast; MDA-N.
Holding throughout (assay): NCI tumour cell line growth inhibition, 48 h

Where “and” joins values, the source holds several entries; their conditions need not be identical. Identical values can stand only once.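 Protocol summary: plate cells (96-well), add compound at 5 concentrations, incubate 48 h, interpolate endpoints linearly. GI50 = concentration required for 50% inhibition of growth. TGI: concentration producing complete growth inhibition.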 A value given as a limit tells only on which side of the number the result lay.

Turning to `OCCCN=NNc1ccc(-c2nc3ccccc3[nH]2)cc1`, in the test with BT-549 breast, the GI50 was 34.4 µM and the TGI was found to be 96.8 µM. Further, in the test on T-47D breast, the GI50 was 2.15 µM and the TGI came to 6.65 µM.
`CC(=O)Nc1ccc(Sc2ccc([N+](=O)[O-])o2)cc1`: in the test with BT-549 breast, the GI50 was 5.22 µM and the TGI is 10.6 µM.
Turning to `COc1cc(/C=C/c2cc(/C=C/c3ccc(O)c(OC)c3)n(-c3c(C)cccc3C)c(=O)n2)ccc1O`, in the test with T-47D breast, the GI50 was 1.34 µM and the TGI was 4.25 µM.
As for `O=C1C(Br)=CC2(C=C1Br)CCN=c1c2c(O)c2nc3ccccc3c3ccnc1c23`, the GI50 is 0.951 µM in the test on MDA-N, 5.83 µM in the test with BT-549 breast and 1.13 µM with T-47D breast. Moreover, the TGI was 2.22 µM in the test with MDA-N, 12.2 µM in the test with BT-549 breast and 3.76 µM in the test with T-47D breast.
Regarding `C=C1C[C@](OC)([C@H](O)C(=O)N[C@@H](OC)[C@@H]2C[C@@H](O)C(C)(C)[C@@H](C[C@@H](COC)OC)O2)O[C@H](C)[C@@H]1C`, in the test on BT-549 breast, the GI50 is 0.00118 µM and the TGI was found to be 0.00326 µM. In addition, in the test with T-47D breast, the GI50 is 0.000814 µM and the TGI was found to be 0.00548 µM.
With `COc1cccc(C2C(C#N)=C(N)Oc3cc(N)ccc32)c1` (configuration not stated), in the test on BT-549 breast, the GI50 was 0.351 µM and the TGI was found to be 54.3 µM.
As for `CC(C)CCOc1ccc(-c2n[nH]c(C(F)(F)F)c2-c2cncc(C#N)c2)c(O)c1`, in the test on BT-549 breast, the GI50 is 2.57 µM and the TGI came out at 9.51 µM. Further, in the test with T-47D breast, the GI50 is 1.56 µM and the TGI is 6.54 µM.
On to `CCN(CC)CCCNc1cccc2c(SCc3ccccc3)ccnc12`, for which, in the test with BT-549 breast, the GI50 was 1.62 µM and the TGI came to 3.35 µM. Also, in the test on T-47D breast, the GI50 was 1.93 µM and the TGI stood at 4.29 µM.
`ClC1=C(Cl)C(Cl)=C(Cl)C1=C/C=C/c1ccccc1`: in the test with T-47D breast, the GI50 was 0.153 µM and the TGI stood at 0.631 µM.
Turning to `NC(CSC(c1ccccc1)(c1ccccc1)c1ccc(Cl)cc1)C(=O)O` (configuration not stated), in the test with BT-549 breast, the GI50 is 0.324 µM and the TGI is 15.8 µM. Besides, in the test with T-47D breast, the GI50 is 0.376 µM and the TGI was 42 µM.
On to `COc1cc(NCCCCN=C(N)NC(N)=NC(C)C)c2ncccc2c1`, for which, in the test with BT-549 breast, the GI50 is 9.6 µM and the TGI stood at 23.9 µM. For the same compound, in the test on T-47D breast, the GI50 was 0.739 µM and the TGI is 8.2 µM.
For the compound `CC(=O)c1ccc(NC(=O)CSc2nnc(-c3cc(-c4ccc(C)cc4)nc4ccccc34)o2)cc1`, in the test on BT-549 breast, the GI50 was 2.44 µM and the TGI is 7.89 µM.
As to `CCOC(=O)c1sc2nc3sc(N=Nc4ccc(Cl)cc4)c(O)n3c(=S)c2c1C`, in the test with T-47D breast, the GI50 was 0.609 µM and the TGI stood at 21.9 µM.
In the case of `CC(=O)N1CC(Nc2ccc(OC(F)(F)F)cc2)=CC1=O`, in the test with BT-549 breast, the GI50 is 4.16 µM and the TGI is above 100 µM.
For `CCOc1ccc([C@@H]2[C@@H](Oc3ccccc3)C(=O)N2c2cc(OC)c(OC)c(OC)c2)cc1`, in the test with BT-549 breast, the GI50 is 0.0681 µM and the TGI is above 100 µM. Besides, in the test with T-47D breast, the GI50 is 9.48 µM and the TGI is above 100 µM.
Consider `CCCCCCCC/C=C/CCCCCCCCC1=NCCN1CCO`, for which, in the test on BT-549 breast, the GI50 was 11.3 µM and the TGI was 40.2 µM. For the same compound, in the test with T-47D breast, the GI50 was 2.96 µM and the TGI worked out at 9.96 µM.
Consider `COC(=O)c1ccc2c(c1)nc(-c1cc3ccccc3[nH]c1=O)n2-c1cc(C(C)(C)C)[nH]n1`, for which, in the test with BT-549 breast, the GI50 was 4.88 µM and the TGI worked out at 66.2 µM. Also, in the test on T-47D breast, the GI50 was above 100 µM and the TGI is above 100 µM.
As to `CC1/C=C/C=C/C=C/C=C/C=C/C=C/C=C/C(O[C@@H]2O[C@H](C)[C@H](O)[C@@H](O)[C@@H]2N)CC(O)C(C(=O)O)C(O)CC(=O)CC(O)CC(O)CC(O)CC(=O)CCCC(=O)CC(=O)OC1C(C)CC(C)C(O)CC(=O)c1ccc(N)cc1` (some centres not stated), in the test with BT-549 breast, the GI50 was 0.213 µM and the TGI came out at 0.444 µM. In addition, in the test with T-47D breast, the GI50 is 0.0722 µM and 0.318 µM; the TGI was 0.188 µM and 1.24 µM.
On to `N#Cc1c(-c2ccc(Cl)cc2)n(O)c2ccccc12`, for which, in the test on BT-549 breast, the GI50 is 1.16 µM and the TGI was determined as 7.97 µM. For the same compound, in the test on T-47D breast, the GI50 is 2.88 µM and the TGI was 11.1 µM.
As to `Cc1cc2cc3cc(C)c(N(C)C)cc3nc2cc1N(C)C`, the GI50 in the test on BT-549 breast was 4.26 µM; in the test on T-47D breast, 1.6 µM. In addition, the TGI is 15.6 µM in the test on BT-549 breast and above 100 µM in the test on T-47D breast.
As to `Cc1nc2sccn2c(=O)c1CCN1CCC(=C(c2ccc(F)cc2)c2ccc(F)cc2)CC1`, in the test with BT-549 breast, the GI50 is 9.38 µM and the TGI was found to be 24.5 µM. Besides, in the test on T-47D breast, the GI50 is 11.7 µM and the TGI amounted to 28.9 µM.
As for `CC(=O)c1c(C(F)(F)F)n([O-])c2ccc(Cl)cc2[n+]1=O`, in the test on BT-549 breast, the GI50 is 1.14 µM and the TGI was 2.65 µM. In addition, in the test with T-47D breast, the GI50 was 2.31 µM and the TGI was above 40.4 µM.
Regarding `CC(C)(C)[Si](C)(C)OCC1OC(n2cnc3c(NC(=O)c4ccccc4)ncnc32)CC1O` (configuration not stated), in the test on T-47D breast, the TGI was determined as 99.5 µM.
In the case of `CCN(CC)c1cc(/C=C/c2ccc(OC)c(OC)c2)nc2cc(F)c(F)cc12`, in the test with BT-549 breast, the GI50 is 2.03 µM and the TGI came out at 5.28 µM. Also, in the test with T-47D breast, the GI50 is 3.38 µM and the TGI was 18.4 µM.
For the compound `COc1ccc(Nn2c(SCC(=O)Nc3nc(-c4ccc(Cl)cc4)cs3)nc(C)c2C)cc1`, in the test with BT-549 breast, the GI50 was 6.46 µM and the TGI worked out at 82 µM. In the test on T-47D breast, the GI50 was 1.23 µM and the TGI stood at 8.04 µM.
For the compound `Cc1cccc(Oc2nccc(-c3c(-c4ccc(F)cc4)ncn3C3CCNCC3)n2)c1C`, in the test on BT-549 breast, the GI50 was 10.9 µM and the TGI is above 19.6 µM. Besides, in the test with T-47D breast, the GI50 was 4.92 µM and the TGI was determined as 10.6 µM.
As to `CN(C)c1ccc(C(=C2C=CC(=[N+](C)C)C=C2)c2ccc(N(C)C)cc2)cc1` (tested in a mixture with another compound), the figures for the GI50 in the test on BT-549 breast and in the test with T-47D breast were 0.188 µM and 0.0389 µM, respectively. The values for the TGI in the test with BT-549 breast and in the test on T-47D breast were 0.84 µM and 0.655 µM, respectively.
Consider `CN1CCCNc2c(c(=O)c2=O)NCCCN(C)CCCNc2c(c(=O)c2=O)NCCCN(C)CCCNc2c(c(=O)c2=O)NCCCN(C)CCCNc2c(c(=O)c2=O)NCCCN(C)CCCNc2c(c(=O)c2=O)NCCCN(C)CCCNc2c(c(=O)c2=O)NCCCN(C)CCCNc2c(c(=O)c2=O)NCCC1`, for which, in the test with BT-549 breast, the GI50 is 5.69 µM and the TGI turned out to be 19.8 µM. In addition, in the test with T-47D breast, the GI50 was 2.06 µM and the TGI stood at 7.74 µM.
As to `O=[N+]([O-])c1ccc(-c2nc(-c3ccccc3)c(-c3ccccc3)n2-c2ccccc2)cc1`, in the test on BT-549 breast, the GI50 was 2.16 µM and the TGI was found to be 6.53 µM. Also, in the test with T-47D breast, the GI50 is 2.19 µM and the TGI stood at 7.29 µM.
For `CC(C)[C@@]12C[C@@H](OC(=O)[C@H]3CO3)[C@@](C)(O1)[C@@H]1CC[C@@H](C)[C@H]1[C@@H]2OC(=O)/C=C/c1ccccc1`, in the test with BT-549 breast, the GI50 was 1.34 µM and the TGI is 13.7 µM. In the test on T-47D breast, the GI50 is 8.11 µM and the TGI was above 49.9 µM.
Turning to `COc1ccc(NC(=O)n2nc(N)c3ccccc32)cc1OC`, in the test on BT-549 breast, the GI50 is 25.9 µM and the TGI is above 100 µM. Further, in the test on T-47D breast, the GI50 is 33 µM and the TGI is above 100 µM.
`COc1ccc(C(=O)c2ccc(OC)c(OC)c2OC)cc1`: in the test with BT-549 breast, the GI50 was 6.16 µM and the TGI was above 100 µM. Besides, in the test with T-47D breast, the GI50 was 5.37 µM and the TGI was above 100 µM.
Compound `COc1cc2c(cc1OCCOS(C)(=O)=O)N=C[C@@H]1CCCN1C2=O` displayed a TGI in the test on T-47D breast above 100 µM.
Consider `COc1ccccc1-n1c(-c2cc(O)ccc2C)cn2c3c(=O)[nH]c(=O)n(C)c3nc12`, for which, in the test with BT-549 breast, the GI50 is 20.5 µM and the TGI is above 100 µM. Further, in the test on T-47D breast, the GI50 was 42.4 µM and the TGI was above 100 µM.
For the compound `O=C(OCc1ccccc1)N1CCN(/[N+]([O-])=N/Oc2ccc([N+](=O)[O-])cc2[N+](=O)[O-])CC1`, in the test with BT-549 breast, the GI50 was 8.15 µM and the TGI came to 23.4 µM.
With `CCC(C)n1cc(C)c2c(C(=O)NCc3c(C)cc(C)[nH]c3=O)cc(Br)cc21` (configuration not stated), in the test on BT-549 breast, the GI50 is 41.8 µM and the TGI was above 100 µM. Also, in the test on T-47D breast, the GI50 is 20 µM and the TGI came out at 73.3 µM.
Turning to `C=C(C)[C@@H]1CC[C@]2(C)[C@H](C(=O)C=C3[C@@H]4C[C@](C)(C(=O)N5CCN(C)CC5)CC[C@]4(C)CC[C@]32C)[C@@]1(C)CCC#N`, in the test with BT-549 breast, the GI50 is 6.67 µM and the TGI is 13.4 µM. Also, in the test on T-47D breast, the GI50 was 4.42 µM and the TGI came out at 13.4 µM.
As to `CCCCCCCCCCCCCCCCCC1=NCCN1CS(=O)(=O)O`, in the test on BT-549 breast, the GI50 was 19.5 µM and the TGI came to 37.7 µM. In addition, in the test with T-47D breast, the GI50 was 20 µM and the TGI stood at 43.1 µM.
